Measured values from publication PMC10531915, “A High-Throughput Small-Angle X-ray Scattering Assay to Determine the Conformational Change of Plasminogen” (International Journal of Molecular Sciences, 2023).
Values joined by “and” are separate entries in the source; they are usually repeats but may differ in a detail not shown here. Equal values may be shown once. “Also recorded” adds a separate entry of the source.

Tests used:
[1] = test system: Plg GII; experiment: HTP 96-well SAXS titration: ligand-induced closed-to-open conformational change of Plg GII; type: biochemical, human; conditions: for Plg conformational change (efficacy in words) / Rg: HTP SAXS; for Plg conformational change (efficacy in words): 0.5 mg/mL Plg, pH 7.4, 16 °C, MK12 up to 10 mM; for Kopen: concentration of ligand at which 50% of Plg GII is open, 0.5 mg/mL Plg GII, 100 mM sodium phosphate pH 7.4, 5% glycerol, 15–30 min incubation, 16 °C, Rg from SAXS, fit with Hill slope; for Fold (GII/GI) of Kopen: Kopen Plg GII / Kopen Plg GI; for Kopen for GII higher than for GI: Kopen Plg GII versus Plg GI; for Kopen fold lower than L-lysine: Kopen for L-lysine 7.47 ± 1.12 mM; for Kopen of EACA relative to TXA, GII: EACA versus TXA; as to Rg: values in Å
Experimental: An HTP assay to study the kinetics of Plg conversion from a closed to an open state was established for this work using Plg GII (see Section 4 and Figure 2).
(§1) Figure 2 Overview of the high-throughput (HTP) kinetic studies of Plg conformational change. In this HTP assay, ligand-induced Plg conformational change is set up in a 96-well plate format. (a) Ligands at the study concentration are mixed with Plg and incubated for 30 min. (b,c) The samples flowed past the X-ray beam in a quartz capillary, and scattering images were collected. (d) The resulting 2D scattering profile is averaged and buffer subtracted. (e). Rg values are derived via Guinier analysis (f) and then normalized before plotting against ligand concentration. The plot is fitted to a multi-site binding model, and Kopen, the ligand concentration required to induce 50% open Plg, is derived. Kopen is a kinetic parameter indicative of ligand efficacy or stability of closed conformation.
(§2) EACA, TXA, and L-lysine were purchased from Sigma-Aldrich (St Louis, MO, USA), whereas peptides MK12, NK55, and CK10 were purchased from GL Biochem (Shanghai, China). Solutions of EACA, TXA, and L-lysine (0.5–1.0 M) were prepared in ultrapure water. The peptide ligands are slightly acidic and therefore were dissolved in 0.1 M NH4OH with gentle sonication. MK12 and CK10 were prepared as 20 mM stock solution, and NK55 was prepared as a 625 μM stock solution.
(§3) For the SEC-SAXS experiment, in-line size exclusion chromatography using a WTC-010S5 column (WYATT) with a co-flow setup was used. For the HTP assays, 1 mg/mL protein samples were mixed 1:1 (v/v) with effector solutions to a final volume of 50 μL in a 96-well plate and incubated for 15–30 min before data collection at 16 °C. The final protein concentration for these experiments was 0.5 mg/mL in the assay buffer unless otherwise specified.
For each sample, a matching buffer was used for background scatter subtraction. To minimize the effect of radiation damage, 50 μL samples were flowed past the X-ray beam in a 1.5 mm diameter quartz capillary at 4 μL.s^−1. Then, 15 to 20 2D scattering images were collected on a Pilatus 1M X-ray detector (Dectris, Baden-Daettwil, Swizerland) using 18 × 1 s exposures. The images were averaged, and the background was subtracted using the Scatterbrain software v.2.82 available at the Australian Synchrotron
For each titration series, the Rg values were normalized as follows: Normalized Rg=Rg− minimum Rg/maximum Rg− minimum Rg

[2] = test system: Plg GI; experiment: HTP 96-well SAXS titration: ligand-induced closed-to-open conformational change of Plg GI; type: biochemical, human; conditions: for Kopen: concentration of ligand at which 50% of Plg GI is open, 0.5 mg/mL Plg, 100 mM sodium phosphate pH 7.4, 5% glycerol, 15–30 min incubation, 16 °C, Rg from SAXS
Experimental: as §1
Thus, we also performed kinetics studies on GI and GII to verify this hypothesis using EACA and TXA in the HTP format (Figure S4, Table 1).
as §2, §3
For each sample, a matching buffer was used for background scatter subtraction. To minimize the effect of radiation damage, 50 μL samples were flowed past the X-ray beam in a 1.5 mm diameter quartz capillary at 4 μL.s^−1. […]

[3] = in vivo, up to, no reference given; cited from earlier work
From the text: Importantly, our data support the notion that these lysine analogues can potentially outcompete the binding of Plg to its binding proteins Plg-RKT and α2AP (Figure S6) at a therapeutic dosage in vivo (plasma ...

[4] = test system: Plg; experiment: Plg activation by tPA with chromogenic substrate S-2251 (Kactivation); conditions: Kactivation by tPA compared to Kopen; 0.25 μM Plg, 0.01 μM tPA, 1 h, 28 °C, 0.2 mM S-2251, A405 nm
[5] = SEC-SAXS and Guinier/P(r) analysis of Plg conformation; type: physicochemical, human; conditions: for Dmax (maximum diameter): P(r); for Rg (radius of gyration): SEC-SAXS, Guinier approximation; as to all read-outs here: values in Å
Experimental: Plg was isolated and purified from human plasma from Red Cross Blood Bank Australia via three-step purification as previously described. Plg GI and GII were prepared with a TXA gradient (Figure S3). Closed Plg was prepared via exhaustive dialysis of purified protein into the assay buffer (100 mM sodium phosphate pH 7.4, 5% glycerol). Proteins were concentrated to 1 mg/mL in centrifugal filters (Merck Millipore, Burlington, MA, USA). The final filtrate was kept as a solvent blank for SAXS experiments.
Experiments were performed at the Australian Synchrotron SAXS/WAXS beamline using a fixed energy of 12 keV and a camera length of 2.6 m.
as §3
Averaged SAXS data were processed with the ATSAS 2.7.2 software package (EMBL Hamburg, Germany). PRIMUS [33] was used for determining the radius of gyration (Rg) and protein molecular weight via Guinier approximation and the particle distance distribution function P(r) using indirect Fourier transform.

[6] = test system: Plg, mixed glycoform sample; conditions: cited from earlier work
Experimental: To analyze the transition profiles of Plg recorded from the fully closed to the fully open forms, we fitted the kinetic data as follows: the Rg of Plg GII in 0 mM EACA (32 Å) was defined as closed. The Rg of Plg in 20 m ...

[7] = open conformation, 10 mM EACA (Figure 1)

Question: Which “Plg conformational change (efficacy in words)” value (“Plg conformational change” below) ([1]; Plg GII) does the source give for “441MEEDYPQFGSPK452 [MK12, peptide corresponding to the last 12 residues of α2AP]” here?
Answer: The value was “did not observe any change in the SAXS profile of Plg GII; also recorded: could not detect any conformational change; also recorded: did not induce a conformational transition even at 10 mM; also recorded: not functional”.

Question: Which results are given for “C139EQSKLFDSK147 [CK10, synthetic peptide corresponding to a C-terminal peptide of Plg-RKT]”?
Answer: Plg conformational change (efficacy in words) ([1]; Plg GII): highly efficacious; Kopen [1]: 0.73 ± 0.24 mM

Question: With `NCCCC[C@H](N)C(=O)O` [L-lysine] as the molecule, how does the “Kopen fold relative to CK10” value ([1]; L-lysine concentration required versus CK10, Plg GII) read?
Answer: The value was ~ 10 fold.

Question: And the “Kopen fold relative to EACA” value ([1]; L-lysine concentration required versus EACA, Plg GII)?
Answer: The value was “more than 20 fold”.

Question: And the “Plg conformational change” value ([1]; Plg GII)?
Answer: Its value is “poor substrate”.

Question: And the Kopen [1]?
Answer: The Kopen was 7.47 ± 1.12 mM.

Question: With `NC[C@H]1CC[C@H](C(=O)O)CC1` [TXA, tranexamic acid] as the molecule, how does the Kopen [2] read?
Answer: Its Kopen is 0.068 ± 0.002 mM.

Question: What about the “plasma concentration at therapeutic dosage” value [3] of the same molecule?
Answer: The value was ~ 1 mM.

Question: And the “Fold (GII/GI) of Kopen” value [1]?
Answer: The value was 1.76.

Question: What about the “Kopen for GII higher than for GI” value [1] of the same molecule?
Answer: The value was ~ 1.75 fold.

Question: What about the “Plg conformational change” value ([1]; Plg GII) of the same molecule?
Answer: The value was “most efficacious ligand”.

Question: And the “Kopen fold lower than L-lysine” value ([1]; Plg GII)?
Answer: Its value is 60 fold.

Question: What about the Kopen [1] of the same molecule?
Answer: Its Kopen is 0.12 ± 0.008 mM.

Question: And the “Kactivation higher than Kopen” value [4]?
Answer: Its value is over 3.5 fold.

Question: Which “Dmax (maximum diameter)” value ([5]; closed conformation (Figure 1)) does the source give for “Plg GII: human plasminogen glycoform II, purified from human plasma” here?
Answer: The value was 105 Å.

Question: What about the “Dmax (maximum diameter)” value [5, 7] of the same molecule?
Answer: Its value is 170 Å.

Question: What about the “diameter of approximate spheroidal particle” value ([5]; Porod plot, closed conformation) of the same molecule?
Answer: The value was about 78 Å.

Question: What about the “Rg of closed Plg” value ([5]; SEC-SAXS comparison of closed GI and GII (Figure 5)) of the same molecule?
Answer: Its value is 31.8 ± 0.6 Å.

Question: And the “Rg (radius of gyration)” value ([5]; closed conformation (Figure 1))?
Answer: Its value is 31.7 ± 0.11 Å.

Question: What about the “Rg (radius of gyration)” value [5, 7] of the same molecule?
Answer: Its value is 48.8 ± 0.9 Å.

Question: What about the “conformational stability of closed form” value ([1]; GII versus GI, from Kopen of EACA and TXA, listed as GII) of the same molecule?
Answer: The value was “more stable than that of GI”.

Question: What about the Rg ([1]; 0 mM EACA, defined as closed) of the same molecule?
Answer: The Rg was 32 Å.

Question: What about the Rg ([1]; 20 mM EACA, defined as open) of the same molecule?
Answer: Its Rg is 49 Å.

Question: Which “Kopen of EACA relative to TXA, GI” value ([2]; Plg GI, EACA versus TXA) does the source give for `NCCCCCC(=O)O` [EACA, ε-aminocaproic acid] here?
Answer: The value was ~ 3 fold.

Question: And the Kopen [2]?
Answer: Its Kopen is 0.20 ± 0.01 mM.

Question: What about the “plasma concentration at therapeutic dosage” value [3] of the same molecule?
Answer: Its value is ~ 10 mM.

Question: And the Hill slope ([1]; EACA titration 0–20 mM, Plg GII, positive cooperativity)?
Answer: The Hill slope was 1.5.

Question: And the “Fold (GII/GI) of Kopen” value [1]?
Answer: Its value is 1.75.

Question: What about the “Kopen for GII higher than for GI” value [1] of the same molecule?
Answer: Its value is ~ 1.75 fold.

Question: What about the “Kopen of EACA relative to TXA, GII” value ([1]; Plg GII) of the same molecule?
Answer: Its value is ~ 3 fold.

Question: And the “Kopen of EACA relative to TXA, GII” value ([1]; Plg GII, listed as ε-aminocaproic acid (EACA))?
Answer: The value was “approximately three times greater than that of tranexamic acid (TXA)”.

Question: And the “Kopen fold lower than L-lysine” value ([1]; Plg GII)?
Answer: Its value is 20 fold.

Question: What about the Kopen [1] of the same molecule?
Answer: Its Kopen is 0.35 mM and 0.35 ± 0.02 mM.

Question: And the “Kopen (previously reported)” value [6]?
Answer: Its value is 0.45 mM.

Question: And the “Kactivation higher than Kopen” value [4]?
Answer: Its value is over 8 fold.

Question: With “398NPSAPRELKEQQDSPGNKDFLQSLKGFPRGDKLFGPDLKLVPPMEEDYPQFGSPK452 [NK55, peptide corresponding to the last 55 residues of α2AP]” as the molecule, how does the “Plg conformational change” value ([1]; Plg GII) read?
Answer: Its value is “confers a higher efficiency in inducing conformational change”.

Question: What about the “more efficacious than CK10 (Kopen)” value ([1]; Plg GII, versus CK10) of the same molecule?
Answer: Its value is ~ 10 fold.

Question: What about the “more efficacious than L-lysine (Kopen)” value ([1]; Plg GII, versus L-lysine) of the same molecule?
Answer: The value was ~ 100 fold.

Question: And the Kopen [1]?
Answer: Its Kopen is 0.08 ± 0.05 mM.
